Data on one substance can be found in patent publication US11932850B2, “Cancer chemoprevention with STAT3 blockers” (Jill M. Siegfried, LLC, priority 2018, dated 2024).

A word on the IC50: it is the concentration that inhibits the measured activity by half.

One series concerns A549 cells. On the procedure: NSCLC cell lines (201T and H1975) were transfected with CS3D or CS3M (cyclic STAT3 mutant decoy) at concentrations ranging from 0 nM to 600 nM. Using MTS assays, cell viabilities were assessed 72 hours later. Three independent experiments were performed, using 24-well plates and 4 wells/concentration.
To determine the concentration of CS3D required to inhibit cell viability, increasing concentrations of CS3D was transfected, and after 72 hours, MTS assays were used to assess cell viability. Data were normalized to cells treated with lipofectamine alone.
Fluorescently-labeled CS3M and CS3D (with iFluor) were also produced using enzymatic ligation as described above and used to assess uptake efficiency. Transfections of the cyclic oligonucleotides were performed using Lipofectamine 2000 (Life Technologies) in opti-MEM media (Life Technologies) as follows: Cells were plated at […] confluency, and exposed to transfection media containing the respective circularized oligonucleotides for 24 hours at 37° C. […]
Dose-response experiments assessing the relative number of metabolically active viable cells were performed by transfecting cells with increasing concentrations of CS3D or CS3M, followed by performance of MTS assays. […] The plates were then read at 490 nm in a Synergy microplate reader (BioTek, Winooski, Vermont) using Gen5 2.05 software. […]

For series [1], the system named is Ki-67, p-STAT3, NF-κB in H1975 xenografts. The series can be described thus: IHC of H1975 xenografts after 5 daily iv injections. The class given is in vivo, nude mice. On the procedure: Because tumors treated for several weeks with the STAT3 decoy were largely composed of debris (as illustrated in FIG. 11), xenografts were examined after only 5 daily tail vein injections to determine what cellular changes were induced prior to collapse of the intracellular tumor structure. […] Tumors derived from H1975 xenografs were analyzed by immunohistochemical staining for p-STAT3 after 5 daily iv injections of either STAT3 decoy or mutant decoy. […] This effect is quantified in FIG. 9B.
Images were captured at 40× magnification. A shift from 41% of cells was observed and scored as high-grade staining with CS3M treatment to 13% with high-grade staining in the presence of CS3D, with corresponding increases in moderate- and low-grade staining in the STAT3 decoy treated group (FIG. 12B). […] Bright field images were captured at 40× magnification. Frequency of high-grade staining for p-STAT3 differed between CS3D and CS3M treatment groups (23% in CS3D-treated and 51% in CS3M treated, with corresponding increase in low-grade staining in presence of the active decoy (FIG. 9B). Significant degradation of p-STAT3 protein was detected by IHC in tumors was observed after treatment with CS3D. Percent of high staining fields was reduced from 48% to 22% while percent of fields with low staining increased, P<0.001 (FIG. 9B).
Immunohistochemical analysis: Tumors were excised for immunohistochemical (IHC) staining; 5-μm (micron) sections were cut from formalin-fixed paraffin-embedded tissue blocks, deparaffinized and rehydrated using successive washes of xylene followed by ethanol. Antigen retrieval was performed in a microwave oven (for 20 minutes) in an unmasking solution containing sodium citrate buffer followed by peroxidase blocking in 3% hydrogen peroxide. The sections were incubated in ABC blocking buffer (Vector laboratories Inc, Burlingame, California) for 1 hour at room temperature. Sections were then stained with H&E (hematoxylin and eosin) or subjected to sequential incubations with different primary antibodies and peroxidase-conjugated goat anti-rabbit secondary antibodies. The following primary antibodies were used (at the indicated dilutions): cleaved caspase-3 (#9664, Cell Signaling, 1:300), p-STAT3 (#9145, Cell Signaling, 1:400), Ki67 (#ab15580, Abcam, 1:1000). Sections were developed with DAB and counterstained with hematoxylin. Bright field microscopy was performed using Leica DM 4000 B LED microscope and images were captured at 20× and 40× magnification using LASv4.7 software. IHC analysis was done as a blinded study with 100 images from each treatment group graded as low, moderate, or high. Staining was graded as low (<30% positive cells per field, scored as 1), moderate (30-60% positive cells per field, scored as 2) or high (>60% positive cells per field, scored as 3).

Series [2] concerns p-STAT3, p-NFkB, VEGF, CD31, IL-6, COX2 in lungs.
Series [3] has as its system c-Myc in H1975-derived tumors. Nature of the series: c-Myc expression in H1975 xenograft tumors (Western blot). The class given is in vivo, nude mice. On the procedure: FIGS. 7C and 7D show c-Myc is suppressed after CS3D treatment in vivo. At the end of the treatments, tumors were harvested, whole cell lysates were prepared and RNA extracted for target gene analysis by Western blotting and RT-qPCR GAPDH protein was used as internal loading control for immunoblotting. CS3D treated tumors (C4, C5, and C6) from separate animals show a decrease in c-Myc expression level relative to the CS3M-treated group (C1, C2, and C3) in 201T. […] Data are shown as mean+/−SEM.
To determine how CS3D blocks NSCLC growth, Western blot, qRT-PCR, and immunohistochemical analysis were performed to determine expression of c-Myc in residual tumors. These analyses identified a substantial downregulation of c-Myc protein (FIGS. 7C and 7D) and mRNA levels (FIG. 7E) in individual CS3D-treated tumors relative to CS3M-treated tumors in both 201T and H1975 xenografts. Some variability in protein levels among individual xenografts was observed (FIGS. 7C and 7D); the densitometry units for c-Myc protein after normalizing for GAPDH levels ranged from 0.11-0.16 units for CS3D-treated xenografts and 0.25-0.46 units for CS3M-treated tumors in H1975. Similarly, in 201T-derived tumors these measurements ranged from 0.015 to 0.51 units for CS3D and 0.28 to 0.97 units for CS3M. Even with this variability, the effect across the groups in both cell lines was significant (P<0.05 for H1975 and P<0.042 for 201T xenografts), with a mean decrease of 65% and 70%, respectively.

[4] abbreviates: 8 weeks post-treatment, vs CS3M.

For “CS3D (DNA GATTTACGGGAAATGCSCATTTCCC; cyclic decoy with two hexaethylene glycol linkers, further chemistry not given here)”, the IC50 with A549 cells amounted to 300 nM. Further, the Ki-67 high-grade staining in series [1] (H1975 xenografts, 5 daily injections) turned out to be 13%. Further, in series [1] (H1975 xenografts, 5 daily iv injections), the “frequency of high-grade staining for p-STAT3” value came out at 23%. In series [1] (H1975 xenografts, second statement in b134 (FIG. 9B)), the “percent of high staining fields for p-STAT3” value was found to be 22%. Also, in series [1] (after 5 daily injections (not shown)), the “induction of apoptosis at early time point” value was “no induction of apoptosis”. In series [1] (after five days of treatment), the NF-κB nuclear protein entry was “No change”. In addition, in series [2] (8 weeks after completion of therapy, vs CS3M), the “IL-6 levels in the airways” value was “upregulated”. The COX-2 expression entry in series [2] (8 weeks after end of treatment, vs CS3M) was “increase”. In addition, in series [2] (setting [4]), the “VEGF staining in the airways” value was “decrease”, the “activated phospho-STAT3 protein” value is on record as “long-term reduction” and the phospho-NF-kB activation result was “decrease”. In addition, the “endothelial marker CD31 expression” value in series [2] (premalignant stage, data not shown) is on record as “suppresses”. Also, the “c-Myc protein densitometry normalized for GAPDH” value in series [3] (H1975 xenograft tumors, range among individual tumors) is listed as 0.11-0.16 units. Also, the “mean decrease of c-Myc protein” value in series [3] (H1975 xenografts, CS3D vs CS3M) was 65%.
